Legend:
[1] = Dissolution test by microcentrifuge method, Example 6; type: physicochemical; conditions: 37° C., 2.7 mg drug, 3.6 mg polymer or none, 1.8 mL
Description: Dissolution performance was measured at 37° C. using a microcentrifuge method. For these tests, 2.7 mg drug in 0.9 mLs 25% gastric solution/75% HPLC water was added to each of 6 microcentrifuge tubes. At time 0, 0.9mLs 2×PBS without polymer was added to tubes 1 and 2, and 0.9 mLs 2×PBS containing 3.6 mg HPMCAS-MF or cellulose acetate trimellitate (CAT) was added to tubes 3 and 4, or 5 and 6. Samples were taken after 4, 10, 20, 40, 90, and 180 minutes, analyzed by HPLC, and compound concentrations were calculated. Gastric solution is 84 mM HCl, 34 mM NaCl, pH 1.2. PBS is phosphate buffered saline: 20 mM sodium phosphate, 4.7 mM potassium phosphate, 8.2 mM NaCl, 0.2 mM KCl, pH 6.5. “2×PBS” is a solution in which the components of PBS are present at 2-fold higher concentration.

[2] = Solubility of the Example 6 drug at pH 2 and pH 6.8; type: physicochemical; conditions: thermodynamic from solid
Description: A test drug is dissolved in a pH 1-2 environment, typically aqueous deionized distilled water adjusted to a target pH within the aforesaid pH 1-2 range by adding an appropriate amount of hydrochloric acid. The amount of drug added is an amount sufficient to saturate the aqueous test medium. The test medium can be agitated, typically gently, by means of a stirring bar, overhead stirrer, or the like. Typically the test medium is left to sit (while being agitated) for several hours, typically overnight. The sample can then be filtered or centrifuged as previously described, and solubility in the filtrate or supernate can then be measured by determining the concentration with any suitable means of detection appropriate to the drug. Likewise, the solubility is also determined at pH 5 to 7. If the drug's pH 1-2 solubility is 3- or more-fold its pH 5-7 solubility, then the drug will benefit from this invention.

[3] = HPMCAS dispersions, dissolution tests at pH 4.0; cited from earlier work

SMILES: CN1CCN(c2ccccc2/C=C2\SCCN(c3ccc(Cl)c(Cl)c3)C2=O)CC1.Cl.O [Z-4-(3,4-dichlorophenyl)-2-[2-(4-methylpiperazin-1-yl)-benzylidene]-thiomorpholin-3-one hydrochloride monohydrate]
- Drug Conc ([1]; 4 min after adding 2xPBS to drug in 25% gastric solution): 518 µg/mL
- Drug Conc ([1]; 10 min after adding 2xPBS to drug in 25% gastric solution): 459 µg/mL
- Drug Conc ([1]; 20 min after adding 2xPBS to drug in 25% gastric solution): 432 µg/mL
- Drug Conc ([1]; 40 min after adding 2xPBS to drug in 25% gastric solution): 317 µg/mL
- Drug Conc ([1]; 90 min after adding 2xPBS to drug in 25% gastric solution): 263 µg/mL
- Drug Conc ([1]; 180 min after adding 2xPBS to drug in 25% gastric solution): 204 µg/mL
- solubility ([2]; deionized distilled water adjusted with hydrochloric acid, pH 2, simulated gastric fluid): 3000 µg/mL
- solubility ([2]; pH 6.8, aqueous buffer): 12 µg/mL

SMILES: CCC1OC(=O)CC(O)C(C)C(OC2OC(C)C(OC3CC(C)(O)C(OC(=O)Cc4ccc(OC)cc4)C(C)O3)C(N(C)C)C2O)C(CC=O)CC(C)C(=O)C=CC(C)=CC1COC1OC(C)C(O)C(OC)C1OC (stereo not drawn) [MAT, 4″-O-(4-methoxyphenyl)acetyltylosin]
- supersaturated concentration relative to crystalline MAT [3]: 9 fold

— US6548555B1, “Basic drug compositions with enhanced bioavailability” (Pfizer Inc, priority 1999, dated 2003)
